Source: ChEMBL document CHEMBL5046255, “Design and synthesis of dual inhibitors targeting snail and histone deacetylase for the treatment of solid tumour cancer” (Eur J Med Chem, 2022)
pIC50, pKd: −log10 of the molar value. Calls of active or inactive are those of the source. The calls are words filed in the database; no cut-off is given here.

Experiments:
SK-OV-3 = test: Antiproliferative activity against human SK-OV-3 cells assessed as growth inhibition incubated for 72 hrs by luminescence assay; format: functional
HCT-116 = test: Antiproliferative activity against human HCT-116 cells assessed as growth inhibition incubated for 72 hrs by luminescence assay; format: functional
Histone deacetylase 11 = Histone deacetylase 11 (Homo sapiens, UniProt Q96DB2); test: Inhibition of HDAC11 (unknown origin) using Boc-Lys(TFA)-AMC as fluorogenic substrate incubated for 30 mins by fluorescence based assay
Chain of Histone deacetylase 11 (Q96DB2 whole entry): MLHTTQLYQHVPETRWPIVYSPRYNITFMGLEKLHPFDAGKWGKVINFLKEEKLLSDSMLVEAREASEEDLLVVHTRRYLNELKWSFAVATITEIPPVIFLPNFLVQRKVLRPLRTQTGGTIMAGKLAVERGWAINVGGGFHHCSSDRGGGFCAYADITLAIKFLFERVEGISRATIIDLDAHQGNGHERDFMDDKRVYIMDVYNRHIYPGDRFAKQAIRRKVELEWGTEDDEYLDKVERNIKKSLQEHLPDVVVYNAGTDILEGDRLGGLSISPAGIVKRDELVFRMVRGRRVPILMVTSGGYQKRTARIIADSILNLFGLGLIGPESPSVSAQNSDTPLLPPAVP

ACHN = test: Antiproliferative activity against human ACHN cells assessed as growth inhibition incubated for 72 hrs by luminescence assay; format: functional
NCI-H522 = test: Antiproliferative activity against human NCI-H522 cells assessed as growth inhibition incubated for 72 hrs by luminescence assay; format: functional
[1] = Metabolic stability in human liver microsomes assessed as intrinsic clearance incubated for 10 mins by LC-MS/MS analysis; format: ADME, Microsome; conditions: read-out: CLH
TK-10 = test: Antiproliferative activity against human TK-10 cells assessed as growth inhibition incubated for 72 hrs by luminescence assay; format: functional
[2] = Metabolic stability in monkey liver microsomes assessed as half life incubated for 10 mins by LC-MS/MS analysis; format: ADME, Macaca mulatta, Microsome; conditions: rhesus monkey
Histone deacetylase 4 = Histone deacetylase 4 (Homo sapiens, UniProt P56524); test: Inhibition of HDAC4 (unknown origin) using Boc-Lys(TFA)-AMC as fluorogenic substrate incubated for 30 mins by fluorescence based assay
Chain of Histone deacetylase 4 (P56524 whole entry): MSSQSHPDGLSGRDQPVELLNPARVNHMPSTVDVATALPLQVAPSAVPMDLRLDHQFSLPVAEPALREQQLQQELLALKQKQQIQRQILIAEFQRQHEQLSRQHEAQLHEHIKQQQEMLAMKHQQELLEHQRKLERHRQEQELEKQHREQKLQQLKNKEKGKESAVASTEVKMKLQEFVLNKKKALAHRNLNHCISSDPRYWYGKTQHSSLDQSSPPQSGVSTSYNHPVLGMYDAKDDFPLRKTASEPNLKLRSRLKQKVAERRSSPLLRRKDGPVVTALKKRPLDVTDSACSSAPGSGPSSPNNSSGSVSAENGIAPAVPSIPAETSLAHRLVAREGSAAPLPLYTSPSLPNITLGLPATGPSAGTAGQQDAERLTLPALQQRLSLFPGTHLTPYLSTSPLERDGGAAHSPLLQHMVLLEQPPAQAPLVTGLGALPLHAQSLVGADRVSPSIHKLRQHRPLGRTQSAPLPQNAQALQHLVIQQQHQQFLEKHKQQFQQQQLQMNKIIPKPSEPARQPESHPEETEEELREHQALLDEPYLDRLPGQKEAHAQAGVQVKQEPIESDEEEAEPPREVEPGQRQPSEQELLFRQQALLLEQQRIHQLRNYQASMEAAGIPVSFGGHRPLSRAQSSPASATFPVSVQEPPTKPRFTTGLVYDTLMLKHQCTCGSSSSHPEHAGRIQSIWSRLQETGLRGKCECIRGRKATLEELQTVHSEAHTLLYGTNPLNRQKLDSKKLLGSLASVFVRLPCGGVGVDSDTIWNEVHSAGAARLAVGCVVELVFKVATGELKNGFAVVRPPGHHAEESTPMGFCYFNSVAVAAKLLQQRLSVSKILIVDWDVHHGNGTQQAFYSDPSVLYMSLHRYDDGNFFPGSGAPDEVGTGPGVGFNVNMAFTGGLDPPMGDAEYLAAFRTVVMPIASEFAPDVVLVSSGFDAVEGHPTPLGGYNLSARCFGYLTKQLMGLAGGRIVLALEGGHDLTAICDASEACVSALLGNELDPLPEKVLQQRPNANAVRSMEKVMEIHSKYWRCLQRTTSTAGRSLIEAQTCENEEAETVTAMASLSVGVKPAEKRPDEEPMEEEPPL

[3] = Clearance in Sprague-Dawley rat at 1 mg/kg, iv measured up to 24 hrs by LC-MS/MS analysis; format: ADME, organism-based; conditions: in vivo
[4] = Half life in Sprague-Dawley rat at 1 mg/kg, iv measured up to 24 hrs by LC-MS/MS analysis; format: ADME, organism-based; conditions: in vivo
PC-3 = test: Antiproliferative activity against human PC-3 cells assessed as growth inhibition incubated for 72 hrs by luminescence assay; format: functional
IGROV-1 = test: Antiproliferative activity against human IGROV-1 cells assessed as growth inhibition incubated for 72 hrs by luminescence assay; format: functional
SF-268 = test: Antiproliferative activity against human SF-268 cells assessed as growth inhibition incubated for 72 hrs by luminescence assay; format: functional
SN12C = test: Antiproliferative activity against human SN12C cells assessed as growth inhibition incubated for 72 hrs by luminescence assay; format: functional
[5] = Metabolic stability in monkey liver microsomes assessed as intrinsic clearance incubated for 10 mins by LC-MS/MS analysis; format: ADME, Macaca mulatta, Microsome; conditions: rhesus monkey, read-out: CLH
UO-31 = test: Antiproliferative activity against human UO-31 cells assessed as growth inhibition incubated for 72 hrs by luminescence assay; format: functional
[6] = Oral bioavailability in Sprague-Dawley rat at 10 mg/kg measured up to 24 hrs by LC-MS/MS analysis; format: ADME, organism-based; conditions: in vivo
LOX IMVI = test: Antiproliferative activity against human LOX IMVI cells assessed as growth inhibition incubated for 72 hrs by luminescence assay; format: functional
[7] = Metabolic stability in dog plasma assessed as parent compound remaining at 100 uM measured after 2 hrs by LC-MS/MS analysis; format: ADME, cell-free, Canis lupus familiaris; conditions: read-out: Stability
HOP-62 = test: Antiproliferative activity against human HOP-62 cells assessed as growth inhibition incubated for 72 hrs by luminescence assay; format: functional
[8] = Metabolic stability in dog plasma assessed as half life at 100 uM measured upto 120 mins by LC-MS/MS analysis; format: ADME, cell-free, Canis lupus familiaris
[9] = Metabolic stability in rat liver microsomes assessed as half life incubated for 10 mins by LC-MS/MS analysis; format: ADME, Microsome
OVCAR-5 = test: Antiproliferative activity against human OVCAR-5 cells assessed as growth inhibition incubated for 72 hrs by luminescence assay; format: functional
786-0 = test: Antiproliferative activity against human 786-0 cells assessed as growth inhibition incubated for 72 hrs by luminescence assay; format: functional
SK-MEL-28 = test: Antiproliferative activity against human SK-MEL-28 cells assessed as growth inhibition incubated for 72 hrs by luminescence assay; format: functional
KM12 = test: Antiproliferative activity against human KM12 cells assessed as growth inhibition incubated for 72 hrs by luminescence assay; format: functional
[10] = Binding affinity to SNAI1 (unknown origin) assessed as dissociation constant; design: species or system Homo sapiens
[11] = Tmax in Sprague-Dawley rat at 10 mg/kg, po measured up to 24 hrs by LC-MS/MS analysis; format: ADME, organism-based; conditions: in vivo
[12] = Metabolic stability in human plasma assessed as half life at 100 uM measured upto 120 mins by LC-MS/MS analysis; format: ADME, cell-free
Hs-578T = test: Antiproliferative activity against human Hs-578T cells assessed as growth inhibition incubated for 72 hrs by luminescence assay; format: functional
[13] = Metabolic stability in rat plasma assessed as half life at 100 uM measured upto 120 mins by LC-MS/MS analysis; format: ADME, cell-free
SK-MEL-2 = test: Antiproliferative activity against human SK-MEL-2 cells assessed as growth inhibition incubated for 72 hrs by luminescence assay; format: functional
A549 = test: Antiproliferative activity against human A549 cells assessed as growth inhibition incubated for 72 hrs by luminescence assay; format: functional
SNB-75 = test: Antiproliferative activity against human SNB-75 cells assessed as growth inhibition incubated for 72 hrs by luminescence assay; format: functional
UACC-62 = test: Antiproliferative activity against human UACC-62 cells assessed as growth inhibition incubated for 72 hrs by luminescence assay; format: functional
HL-60 = test: Antiproliferative activity against human HL-60 cells assessed as growth inhibition incubated for 72 hrs by luminescence assay; format: functional
DU-145 = test: Antiproliferative activity against human DU-145 cells assessed as growth inhibition incubated for 72 hrs by luminescence assay; format: functional
[14] = Metabolic stability in rat liver microsomes assessed as intrinsic clearance incubated for 10 mins by LC-MS/MS analysis; format: ADME, Microsome; conditions: read-out: CLH
A498 = test: Antiproliferative activity against human A498 cells assessed as growth inhibition incubated for 72 hrs by luminescence assay; format: functional
SK-MEL-5 = test: Antiproliferative activity against human SK-MEL-5 cells assessed as growth inhibition incubated for 72 hrs by luminescence assay; format: functional
HOP-92 = test: Antiproliferative activity against human HOP-92 cells assessed as growth inhibition incubated for 72 hrs by luminescence assay; format: functional
MDA-MB-231 = test: Antiproliferative activity against human MDA-MB-231 cells assessed as growth inhibition incubated for 72 hrs by luminescence assay; format: functional
T47D = test: Antiproliferative activity against human T47D cells assessed as growth inhibition incubated for 72 hrs by luminescence assay; format: functional
OVCAR-8 = test: Antiproliferative activity against human OVCAR-8 cells assessed as growth inhibition incubated for 72 hrs by luminescence assay; format: functional
SF-539 = test: Antiproliferative activity against human SF-539 cells assessed as growth inhibition incubated for 72 hrs by luminescence assay; format: functional
[15] = biological target: Histone deacetylase (Homo sapiens) (UniProt Q13547+O15379+Q9UBN7+Q92769+Q9UQL6+Q8WUI4+Q9BY41+Q96DB2+P56524+Q9UKV0+Q969S8); test: Inhibition of HDAC in human HCT-116 cells assessed as increase in Ac-H4 expression at 50 nM measured after 24 hrs by western blot analysis; format: cell-based

- GI50 (SK-OV-3): 0.339 µM
- GI50 (HCT-116): 0.494 µM
- pIC50 (Histone deacetylase 11): < 5.00
- GI50 (ACHN): 1.24 µM
- GI50 (NCI-H522): 0.0488 µM
- microsomal CLint [1]: 20.9 µL/min/mg
- half-life [2]: 0.463 h
- pIC50 (Histone deacetylase 4): < 5.00
- clearance [3]: 24.2 mL/min/kg
- t1/2 [4]: 0.303 h
- GI50 (PC-3): 0.355 µM
- microsomal CLint [5]: 50.3 µL/min/mg
- F [6]: 7.3%
- remaining at 2 h, 100 µM [7]: 85.7%
- half-life at 100 µM [8]: 7.15 h
- half-life [9]: 0.21 h
- GI50 (OVCAR-5): 0.657 µM
- GI50 (786-0): 0.466 µM
- GI50 (SK-MEL-28): 2.83 µM
- pKd [10]: 6.74
- Tmax [11]: 4 h
- half-life at 100 µM [12]: 5.62 h
- half-life at 100 µM [13]: 8.58 h
- GI50 (SK-MEL-2): 0.617 µM
- GI50 (A549): 0.886 µM
- GI50 (HL-60): 0.268 µM
- GI50 (DU-145): 0.461 µM
- microsomal CLint [14]: 110 µL/min/mg
- GI50 (SK-MEL-5): 0.334 µM
- GI50 (MDA-MB-231): 0.854 µM
- GI50 (T47D): 1.12 µM
- GI50 (OVCAR-8): 0.483 µM
- Activity [15]: Active
Structure (SMILES): Cc1cc(Nc2nc(SCc3ccc(C(=O)Nc4ccc(F)cc4N)cc3)nn3cccc23)n[nH]1
- GI50 (TK-10): 1.21 µM
- GI50 (IGROV-1): 0.558 µM
- GI50 (SF-268): 1.12 µM
- GI50 (SN12C): 1.25 µM
- GI50 (UO-31): 1.33 µM
- GI50 (LOX IMVI): 0.665 µM
- GI50 (HOP-62): 0.556 µM
- GI50 (KM12): 0.284 µM
- GI50 (Hs-578T): 0.429 µM
- GI50 (SNB-75): 0.198 µM
- GI50 (UACC-62): 0.347 µM
- GI50 (A498): 0.623 µM
- GI50 (HOP-92): 3.68 µM
- GI50 (SF-539): 0.282 µM
